According to patent US11306117B2, “Whitening composition containing novel quercetin-based compound” (AMOREPACIFIC CORPORATION, priority 2017, dated 2022):

Assays:
healthy adult examinees = test: HRIPT (Human repeated insult patch tests), skin accumulated stimulus; format: in vivo; design: key to skin reactivity (ICDRG criteria): −: negative (no response); ±: doubtful or slight erythema, etc.; +: weak reaction (which is accompanied with no phlyctenule), erythema, papule; ++: severe reaction (which is accompanied with phylctenule), erythema, papule, phlyctenule; +++: strong reaction, bullae reaction; conditions: for average reactivity: 9 patches, 15 examinees; for Number of examinees who exhibited ±, +, or ++ reactivity 1st: 1st patch; for Number of examinees who exhibited ±, +, or ++ reactivity 2nd: 2nd patch; for Number of examinees who exhibited ±, +, or ++ reactivity 3rd: 3rd patch; for Number of examinees who exhibited ±, +, or ++ reactivity 4th: 4th patch; for Number of examinees who exhibited ±, +, or ++ reactivity 5th: 5th patch; for Number of examinees who exhibited ±, +, or ++ reactivity 6th: 6th patch; for Number of examinees who exhibited ±, +, or ++ reactivity 7th: 7th patch; for Number of examinees who exhibited ±, +, or ++ reactivity 8th: 8th patch; for Number of examinees who exhibited ±, +, or ++ reactivity 9th: 9th patch
Experimental: HRIPT (Human repeated insult patch tests) was conducted in order to identify skin accumulated stimulus of quercetin3-O-[3-O″-(E)-p-coumaroyl][β-D-glucopyranosyl-(1→3)-O-α-L-rhamnopyranosyl-(1→6)-O-β-D-glucopyranoside] and quercetin3-O-[3-O″-(E)-p-coumaroyl][α-L-rhamnopyranosyl-(1→6)-O-β-D-glucopyranoside]and to calculate the concentration range that can be used in skin.
Specifically, 15 healthy adult examinees were randomly selected, and test compositions in which the compounds were respectively comprised in an amount of 0.5 wt. %, 1 wt. %, and 3 wt. % (the compositions for skin, comprising an emulsifying agent, a stabilizer, purified water, etc. in addition to the compounds) were dropped in the amount of 20 μl per chamber (IQ chamber, Epitest Ltd, Finland), and patched on the right site of the upper back of the examinees, and then, after 24 hours, the patch was replaced with a new patch. A total of 9 patches were conducted, three times a week for total 3 weeks, in such manner, the skin reactions before and after patch were examined every time, and the skin reactions until 48 hours after removing the final patch were observed, and the average reactivity was observed.
The skin reaction was determined according to the criteria of International Contact Dermatitis Research Group (ICDRG). In the above table, “New Material 31” refers to quercetin3-O-[3-O″-(E)-p-coumaroyl][β-D-glucopyranosyl-(1→3)-O-α-L-rhamnopyranosyl-(1→6)-O-β-D-glucopyranoside], and “New Material 32” refers to quercetin3-O-[3-O″-(E)-p-coumaroyl][α-L-rhamnopyranosyl-(1→6)-O-β-D-glucopyranoside].

mushroom tyrosinase = test: Inhibition of tyrosinase activity; format: biochemical; conditions: L-tyrosine, 37° C., 20 minutes, absorbance 490 nm
Experimental: The effect of New Materials 31 and 32 on inhibiting tyrosinase activity was evaluated.
Specifically, tyrosinase and tyrosine derived from mushroom were obtained from Sigma Chemical. Together with 150 μl of 0.1 M phosphate buffer (pH 6.5), 8 μl of mushroom tyrosinase (2,100 unit/ml) and 0.05 M concentration of L-tyrosine, arbutin and New Materials 31 and 32 were treated at the concentrations of following Table 3, respectively. The tyrosinase activity was evaluated by performing the enzyme reaction at 37° C. for 20 minutes and then measuring absorbance at 490 nm using a microplate reader (Bio-Rad 3550, Richmond, Calif., U.S.A.).

C[C@@H]1O[C@@H](OC[C@H]2O[C@@H](Oc3c(-c4ccc(O)c(O)c4)oc4cc(O)cc(O)c4c3=O)[C@H](O)[C@@H](OC(=O)/C=C/c3ccc(O)cc3)[C@@H]2O)[C@H](O)[C@H](O)[C@H]1O [New Material 32, quercetin3-O-[3-O″-(E)-p-coumaroyl][α-L-rhamnopyranosyl-(1→6)-O-β-D-glucopyranoside]]
average reactivity (healthy adult examinees; 0.5 wt.% in test composition): 0
skin reactivity (ICDRG criteria) (healthy adult examinees; 0.5 wt.%, 1 wt.% and 3 wt.%, 9 patches in 3 weeks): −
Number of examinees who exhibited ±, +, or ++ reactivity 1st (healthy adult examinees; 0.5 wt.%, line 1 of 3 (±)): 0 number
Number of examinees who exhibited ±, +, or ++ reactivity 1st (healthy adult examinees; 0.5 wt.%, line 2 of 3 (+)): 0 number
Number of examinees who exhibited ±, +, or ++ reactivity 1st (healthy adult examinees; 0.5 wt.%, line 3 of 3 (++)): 0 number
Number of examinees who exhibited ±, +, or ++ reactivity 2nd (healthy adult examinees; 0.5 wt.%, line 1 of 3 (±)): 0 number
Number of examinees who exhibited ±, +, or ++ reactivity 2nd (healthy adult examinees; 0.5 wt.%, line 2 of 3 (+)): 0 number
Number of examinees who exhibited ±, +, or ++ reactivity 2nd (healthy adult examinees; 0.5 wt.%, line 3 of 3 (++)): 0 number
Number of examinees who exhibited ±, +, or ++ reactivity 3rd (healthy adult examinees; 0.5 wt.%, line 1 of 3 (±)): 0 number
Number of examinees who exhibited ±, +, or ++ reactivity 3rd (healthy adult examinees; 0.5 wt.%, line 2 of 3 (+)): 0 number
Number of examinees who exhibited ±, +, or ++ reactivity 3rd (healthy adult examinees; 0.5 wt.%, line 3 of 3 (++)): 0 number
Number of examinees who exhibited ±, +, or ++ reactivity 4th (healthy adult examinees; 0.5 wt.%, line 1 of 3 (±)): 0 number
Number of examinees who exhibited ±, +, or ++ reactivity 4th (healthy adult examinees; 0.5 wt.%, line 2 of 3 (+)): 0 number
Number of examinees who exhibited ±, +, or ++ reactivity 4th (healthy adult examinees; 0.5 wt.%, line 3 of 3 (++)): 0 number
Number of examinees who exhibited ±, +, or ++ reactivity 5th (healthy adult examinees; 0.5 wt.%, line 1 of 3 (±)): 0 number
Number of examinees who exhibited ±, +, or ++ reactivity 5th (healthy adult examinees; 0.5 wt.%, line 2 of 3 (+)): 0 number
Number of examinees who exhibited ±, +, or ++ reactivity 5th (healthy adult examinees; 0.5 wt.%, line 3 of 3 (++)): 0 number
Number of examinees who exhibited ±, +, or ++ reactivity 6th (healthy adult examinees; 0.5 wt.%, line 1 of 3 (±)): 0 number
Number of examinees who exhibited ±, +, or ++ reactivity 6th (healthy adult examinees; 0.5 wt.%, line 2 of 3 (+)): 0 number
Number of examinees who exhibited ±, +, or ++ reactivity 6th (healthy adult examinees; 0.5 wt.%, line 3 of 3 (++)): 0 number
Number of examinees who exhibited ±, +, or ++ reactivity 7th (healthy adult examinees; 0.5 wt.%, line 1 of 3 (±)): 0 number
Number of examinees who exhibited ±, +, or ++ reactivity 7th (healthy adult examinees; 0.5 wt.%, line 2 of 3 (+)): 0 number
Number of examinees who exhibited ±, +, or ++ reactivity 7th (healthy adult examinees; 0.5 wt.%, line 3 of 3 (++)): 0 number
Number of examinees who exhibited ±, +, or ++ reactivity 8th (healthy adult examinees; 0.5 wt.%, line 1 of 3 (±)): 0 number
Number of examinees who exhibited ±, +, or ++ reactivity 8th (healthy adult examinees; 0.5 wt.%, line 2 of 3 (+)): 0 number
Number of examinees who exhibited ±, +, or ++ reactivity 8th (healthy adult examinees; 0.5 wt.%, line 3 of 3 (++)): 0 number
Number of examinees who exhibited ±, +, or ++ reactivity 9th (healthy adult examinees; 0.5 wt.%, line 1 of 3 (±)): 0 number
Number of examinees who exhibited ±, +, or ++ reactivity 9th (healthy adult examinees; 0.5 wt.%, line 2 of 3 (+)): 0 number
Number of examinees who exhibited ±, +, or ++ reactivity 9th (healthy adult examinees; 0.5 wt.%, line 3 of 3 (++)): 0 number
average reactivity (healthy adult examinees; 1 wt.% in test composition): 0
Number of examinees who exhibited ±, +, or ++ reactivity 1st (healthy adult examinees; 1 wt.%, line 1 of 3 (±)): 0 number
Number of examinees who exhibited ±, +, or ++ reactivity 1st (healthy adult examinees; 1 wt.%, line 2 of 3 (+)): 0 number
Number of examinees who exhibited ±, +, or ++ reactivity 1st (healthy adult examinees; 1 wt.%, line 3 of 3 (++)): 0 number
Number of examinees who exhibited ±, +, or ++ reactivity 2nd (healthy adult examinees; 1 wt.%, line 1 of 3 (±)): 0 number
Number of examinees who exhibited ±, +, or ++ reactivity 2nd (healthy adult examinees; 1 wt.%, line 2 of 3 (+)): 0 number
Number of examinees who exhibited ±, +, or ++ reactivity 2nd (healthy adult examinees; 1 wt.%, line 3 of 3 (++)): 0 number
Number of examinees who exhibited ±, +, or ++ reactivity 3rd (healthy adult examinees; 1 wt.%, line 1 of 3 (±)): 0 number
Number of examinees who exhibited ±, +, or ++ reactivity 3rd (healthy adult examinees; 1 wt.%, line 2 of 3 (+)): 0 number
Number of examinees who exhibited ±, +, or ++ reactivity 3rd (healthy adult examinees; 1 wt.%, line 3 of 3 (++)): 0 number
Number of examinees who exhibited ±, +, or ++ reactivity 4th (healthy adult examinees; 1 wt.%, line 1 of 3 (±)): 0 number
Number of examinees who exhibited ±, +, or ++ reactivity 4th (healthy adult examinees; 1 wt.%, line 2 of 3 (+)): 0 number
Number of examinees who exhibited ±, +, or ++ reactivity 4th (healthy adult examinees; 1 wt.%, line 3 of 3 (++)): 0 number
Number of examinees who exhibited ±, +, or ++ reactivity 5th (healthy adult examinees; 1 wt.%, line 1 of 3 (±)): 0 number
Number of examinees who exhibited ±, +, or ++ reactivity 5th (healthy adult examinees; 1 wt.%, line 2 of 3 (+)): 0 number
Number of examinees who exhibited ±, +, or ++ reactivity 5th (healthy adult examinees; 1 wt.%, line 3 of 3 (++)): 0 number
Number of examinees who exhibited ±, +, or ++ reactivity 6th (healthy adult examinees; 1 wt.%, line 1 of 3 (±)): 0 number
Number of examinees who exhibited ±, +, or ++ reactivity 6th (healthy adult examinees; 1 wt.%, line 2 of 3 (+)): 0 number
Number of examinees who exhibited ±, +, or ++ reactivity 6th (healthy adult examinees; 1 wt.%, line 3 of 3 (++)): 0 number
Number of examinees who exhibited ±, +, or ++ reactivity 7th (healthy adult examinees; 1 wt.%, line 1 of 3 (±)): 0 number
Number of examinees who exhibited ±, +, or ++ reactivity 7th (healthy adult examinees; 1 wt.%, line 2 of 3 (+)): 0 number
Number of examinees who exhibited ±, +, or ++ reactivity 7th (healthy adult examinees; 1 wt.%, line 3 of 3 (++)): 0 number
Number of examinees who exhibited ±, +, or ++ reactivity 8th (healthy adult examinees; 1 wt.%, line 1 of 3 (±)): 0 number
Number of examinees who exhibited ±, +, or ++ reactivity 8th (healthy adult examinees; 1 wt.%, line 2 of 3 (+)): 0 number
Number of examinees who exhibited ±, +, or ++ reactivity 8th (healthy adult examinees; 1 wt.%, line 3 of 3 (++)): 0 number
Number of examinees who exhibited ±, +, or ++ reactivity 9th (healthy adult examinees; 1 wt.%, line 1 of 3 (±)): 0 number
Number of examinees who exhibited ±, +, or ++ reactivity 9th (healthy adult examinees; 1 wt.%, line 2 of 3 (+)): 0 number
Number of examinees who exhibited ±, +, or ++ reactivity 9th (healthy adult examinees; 1 wt.%, line 3 of 3 (++)): 0 number
average reactivity (healthy adult examinees; 3 wt.% in test composition): 0
Number of examinees who exhibited ±, +, or ++ reactivity 1st (healthy adult examinees; 3 wt.%, line 1 of 3 (±)): 0 number
Number of examinees who exhibited ±, +, or ++ reactivity 1st (healthy adult examinees; 3 wt.%, line 2 of 3 (+)): 0 number
Number of examinees who exhibited ±, +, or ++ reactivity 1st (healthy adult examinees; 3 wt.%, line 3 of 3 (++)): 0 number
Number of examinees who exhibited ±, +, or ++ reactivity 2nd (healthy adult examinees; 3 wt.%, line 1 of 3 (±)): 0 number
Number of examinees who exhibited ±, +, or ++ reactivity 2nd (healthy adult examinees; 3 wt.%, line 2 of 3 (+)): 0 number
Number of examinees who exhibited ±, +, or ++ reactivity 2nd (healthy adult examinees; 3 wt.%, line 3 of 3 (++)): 0 number
Number of examinees who exhibited ±, +, or ++ reactivity 3rd (healthy adult examinees; 3 wt.%, line 1 of 3 (±)): 0 number
Number of examinees who exhibited ±, +, or ++ reactivity 3rd (healthy adult examinees; 3 wt.%, line 2 of 3 (+)): 0 number
Number of examinees who exhibited ±, +, or ++ reactivity 3rd (healthy adult examinees; 3 wt.%, line 3 of 3 (++)): 0 number
Number of examinees who exhibited ±, +, or ++ reactivity 4th (healthy adult examinees; 3 wt.%, line 1 of 3 (±)): 0 number
Number of examinees who exhibited ±, +, or ++ reactivity 4th (healthy adult examinees; 3 wt.%, line 2 of 3 (+)): 0 number
Number of examinees who exhibited ±, +, or ++ reactivity 4th (healthy adult examinees; 3 wt.%, line 3 of 3 (++)): 0 number
Number of examinees who exhibited ±, +, or ++ reactivity 5th (healthy adult examinees; 3 wt.%, line 1 of 3 (±)): 0 number
Number of examinees who exhibited ±, +, or ++ reactivity 5th (healthy adult examinees; 3 wt.%, line 2 of 3 (+)): 0 number
Number of examinees who exhibited ±, +, or ++ reactivity 5th (healthy adult examinees; 3 wt.%, line 3 of 3 (++)): 0 number
Number of examinees who exhibited ±, +, or ++ reactivity 6th (healthy adult examinees; 3 wt.%, line 1 of 3 (±)): 0 number
Number of examinees who exhibited ±, +, or ++ reactivity 6th (healthy adult examinees; 3 wt.%, line 2 of 3 (+)): 0 number
Number of examinees who exhibited ±, +, or ++ reactivity 6th (healthy adult examinees; 3 wt.%, line 3 of 3 (++)): 0 number
Number of examinees who exhibited ±, +, or ++ reactivity 7th (healthy adult examinees; 3 wt.%, line 1 of 3 (±)): 0 number
Number of examinees who exhibited ±, +, or ++ reactivity 7th (healthy adult examinees; 3 wt.%, line 2 of 3 (+)): 0 number
Number of examinees who exhibited ±, +, or ++ reactivity 7th (healthy adult examinees; 3 wt.%, line 3 of 3 (++)): 0 number
Number of examinees who exhibited ±, +, or ++ reactivity 8th (healthy adult examinees; 3 wt.%, line 1 of 3 (±)): 0 number
Number of examinees who exhibited ±, +, or ++ reactivity 8th (healthy adult examinees; 3 wt.%, line 2 of 3 (+)): 0 number
Number of examinees who exhibited ±, +, or ++ reactivity 8th (healthy adult examinees; 3 wt.%, line 3 of 3 (++)): 0 number
Number of examinees who exhibited ±, +, or ++ reactivity 9th (healthy adult examinees; 3 wt.%, line 1 of 3 (±)): 0 number
Number of examinees who exhibited ±, +, or ++ reactivity 9th (healthy adult examinees; 3 wt.%, line 2 of 3 (+)): 0 number
Number of examinees who exhibited ±, +, or ++ reactivity 9th (healthy adult examinees; 3 wt.%, line 3 of 3 (++)): 0 number
IC50 inhibiting tyrosinase activity (mushroom tyrosinase): 19 ppm
